Laboratory results taken from patent US11352315B2, “Compositions and methods comprising a triaryl polyamine” (Curza Global, LLC, priority 2017, dated 2022).
Values after ≈ are worked out from the molar mass of the structure shown.

Tests used:
[1] = tested on: E. coli; assay: MIC analysis; type: cell-based; conditions: Escherichia coli, 24 hours
Description: (§1) To determine the MIC of polyamine compounds, the protocol described herein was used.
(§2) In brief, a 0.5 McFarland of each bacterial isolate was made. A 0.5 McFarland is a measure of turbidity in a liquid sample that contains approximately 1×10^^8 CFU/mL. The 0.5 McFarland standard was diluted in cation adjusted Mueller Hinton Broth (CAMHB), and 50 μL of broth were added to a well of a 96-well plate. In addition, 50 μL of CAMHB that contained a desired concentration of antimicrobial were also added to the well for a final volume of 100 μL and a final concentration of approximately 5×10^4 CFU/well (which equated to approximately 5×10^5 CFU/mL). Each well contained a desired amount of polyamine compound in order to experimentally determine the MIC. Each 96-well plate was incubated at 37° C. for 24 hours. The contents of each well were plated on tryptic soy agar (TSA). TSA plates were incubated for 37° C. for 24 hours after which the number of CFU were counted and used to calculate the CFU/mL that remained after exposure to varying concentrations of compound. This procedure was repeated n=8 times for each concentration of antimicrobial.

[2] = tested on: A. baumannii; assay: MIC analysis; type: cell-based; conditions: Acinetobacter baumannii, 24 hours
Description: as §1, §2

[3] = tested on: E. coli; assay: MBEC analysis, MBEC Inoculation Tray (column headed MBC); type: cell-based; conditions: Escherichia coli, 24 hours
[4] = tested on: P. aeruginosa; assay: as above; type: cell-based; conditions: Pseudomonas aeruginosa, 24 hours
Description: (§3) To determine the MBEC of each polyamine compound, the MBEC Inoculation Tray by Innovotech, formerly known as the Calgary biofilm device, was used. Within this device, biofilms grow on the surface of polystyrene pegs, 96 of which are attached to a lid. These pegs are inserted into a flat bottom 96-well plate. In this instance, the MBEC of a molecule was defined as the concentration of compound (in μg/mL) required to reduce 10^5 or 10^6 CFU/peg (biofilm levels varied by isolate) to 10^2 CFU/peg in a 24-hour period.
(§4) Following the manufacturer's guidelines, biofilms were grown on the surface of each peg by first making a 0.5 McFarland of each isolate. The 0.5 McFarland was diluted 1:100 in CAMHB. Into each well of a flat bottom 96-well plate, 150 μL of broth were pipetted. The plate was shaken at 100 rpm for 24 hours (P. aeruginosa and A. baumannii) or 48 hours (MRSA). The pegs were then placed into a separate flat bottom 96-well plate for 10 seconds with 200 μL of phosphate buffered saline (PBS) in each well to remove nonadherent cells. The lid was then placed into a 96-well plate that contained varying concentrations of antimicrobial with 200 μL per well. The plate was incubated for 24 hours at 37° C. after which time 100 μL of broth were plated on TSA. TSA plates were incubated 24 hours at 37° C. and the number of CFU counted to calculate the CFU/peg. In this instance, the MBEC was defined as the concentration of antimicrobial required to reduce 10^5 or 10^6 CFU/peg to 10^2 CFU/peg in a 24 hour period.

[5] = tested on: MRSA; assay: as above; type: cell-based; conditions: Staphylococcus aureus, 24 hours
Description: as §3, §4

[6] = tested on: A. baumannii; assay: as above; type: cell-based; conditions: Acinetobacter baumannii, 24 hours
Description: as §3, §4

[7] = tested on: P. aeruginosa; assay: MIC analysis; type: cell-based; conditions: Pseudomonas aeruginosa, 24 hours
Description: (§5) A clinical strain of MRSA, isolated from a patient who underwent arthroscopic knee surgery and characterized by ARUP Laboratories, Salt Lake City, Utah, was used for this study in addition to Pseudomonas aeruginosa ATCC 27853 and Alcanivorax borkumensis ATCC 700651. P. aeruginosa was resuspended in BHI broth, grown overnight at 37° C. and transferred to fresh BHI with 30% glycerol for storage at −80° C. The MRSA isolate was likewise stored in BHI with 30% glycerol at −80° C. […] Before performing MIC analysis and biofilm experiments, the frozen stocks of MRSA and P. aeruginosa were streaked onto Columbia blood agar plates and grown overnight at 37° C. A. borkumensis ATCC 700651 was resuspended from a lyophilized pellet into marine broth, grown overnight at 30° C. and passaged on marine agar plates prior to experimentation.
as §1, §2

[8] = tested on: MRSA; assay: MIC analysis; type: cell-based; conditions: Staphylococcus aureus, 24 hours
Description: as §5, §1, §2

[9] = tested on: A. baumannii; assay: EBEC analysis, high number biofilms on PEEK membranes; type: cell-based, Acinetobacter baumannii; conditions: 24 hours
Description: (§6) To determine the efficacy of polyamine compounds against high number biofilms, biofilms were grown on the surface of polyetheretherketone (PEEK) membranes using a membrane biofilm reactor. This reactor was similar to the CDC biofilm reactor, but rather than growing biofilms on coupon surfaces, the reactor was modified to hold PEEK membranes. In short, to grow biofilms within this system, 500 mL of brain heart infusion (BHI) broth were inoculated with 1 mL of a 0.5 McFarland. The reactor was placed on a hot plate set at 34° C. and the bacteria were grown under batch conditions for 24 hours.
(§7) A solution of 10% BHI was then flowed through the reactor at a rate of 6.94 mL/min for an additional 24 hours. PEEK membranes were then removed and placed into 2 mL of CAMHB that contained a desired concentration of polyamine compound or antibiotic. The EBEC was defined as the concentration of antimicrobial required to reduce a biofilm from approximately 10^9 CFU/PEEK membrane to approximately 10^2 CFU/PEEK membrane in a 24-hour period.

[10] = tested on: MRSA; assay: as above; type: cell-based, Staphylococcus aureus; conditions: 24 hours
Description: as §6, §7

Row | SMILES | MIC [1] | MIC [2] | MBC [3] | MBC [4] | MBC [5] | MBC [6] | MIC [7] | MIC [8] | EBEC [9] | EBEC [10]
1 | CCCCC(CC)CNCCCNCCCNCc1ccc(-c2cccc(-c3ccc(CNCCCNCCCNCC(CC)CCCC)cc3)c2)cc1 (stereo not drawn) [CZ-1-161, N^1,N^1′-([1,1′:3′,1″-terphenyl]-4,4″-diylbis(methylene))bis(N^3-(3-((2-ethylhexyl)amino)propyl)propane-1,3-diamine)] | 1 µg/mL (≈ 1.35 µM) | 4 µg/mL (≈ 5.4 µM) | 1 µg/mL (≈ 1.35 µM) | 16 µg/mL (≈ 21.6 µM) | 2 µg/mL (≈ 2.7 µM) | 4 µg/mL (≈ 5.4 µM) | 16 µg/mL (≈ 21.6 µM) | 1 µg/mL (≈ 1.35 µM) |  | 
2 | CC(C)CCNCCCNCCCNCc1ccc(-c2ccnc(-c3ccc(CNCCCNCCCNCCC(C)C)cc3)n2)cc1 [CZ-1-174, N^1,N^1′-((pyrimidine-2,4-diylbis(4,1-phenylene))bis(methylene))bis(N^3-(3-(isopentylamino)propyl)propane-1,3-diamine)] |  |  |  | > 64 µg/mL | 16 µg/mL (≈ 24.3 µM) |  | 64 µg/mL (≈ 97.1 µM) | 8 µg/mL (≈ 12.1 µM) |  | 
3 | CCC(CC)CNCCCNCCCNCc1ccc(-c2cccc(-c3ccc(CNCCCNCCCNCC(CC)CC)cc3)c2)cc1 [CZ-1-164, N^1,N^1′-([1,1′:3′,1″-terphenyl]-4,4″-diylbis(methylene))bis(N^3-(3-((2-ethylbutyl)amino)propyl)propane-1,3-diamine)] |  |  |  | 16 µg/mL (≈ 23.4 µM) | 1 µg/mL (≈ 1.46 µM) |  | 16 µg/mL (≈ 23.4 µM) | 1 µg/mL (≈ 1.46 µM) |  | 
4 | CC(C)CNCCCNCCCNCc1ccc(-c2cc(-c3ccc(CNCCCNCCCNCC(C)C)cc3)ncn2)cc1 [CZ-1-176, N^1,N^1′-((pyrimidine-4,6-diylbis(4,1-phenylene))bis(methylene))bis(N^3-(3-(isobutylamino)propyl)propane-1,3-diamine)] |  |  |  | 64 µg/mL (≈ 101 µM) | 32 µg/mL (≈ 50.7 µM) |  | 64 µg/mL (≈ 101 µM) | 32 µg/mL (≈ 50.7 µM) |  | 
5 | CC(C)CNCCCNCCCNCc1cccc(-c2ccccc2-c2cccc(CNCCCNCCCNCC(C)C)c2)c1 [CZ-1-152] |  |  |  | 32 µg/mL (≈ 50.9 µM) | 16 µg/mL (≈ 25.4 µM) |  | 32 µg/mL (≈ 50.9 µM) | 16 µg/mL (≈ 25.4 µM) |  | 
6 | CC(C)CNCCCNCCCNCc1ccc(-c2cc(-c3ccc(CNCCCNCCCNCC(C)C)cc3)cc(C(C)(C)C)c2)cc1 [CZ-1-177, N^1,N^1′-((5′-(tert-butyl)-[1,1′:3′,1″-terphenyl]-4,4″-diyl)bis(methylene))bis(N^3-(3-(isobutylamino)propyl)propane-1,3-diamine)] |  | 8 µg/mL (≈ 11.7 µM) |  | > 4 µg/mL | 1 µg/mL (≈ 1.46 µM) | 16 µg/mL (≈ 23.4 µM) | 1 µg/mL (≈ 1.46 µM) | 1 µg/mL (≈ 1.46 µM) | 500 µg/mL | 250 µg/mL
7 | CCC(C)CNCCCNCCCNCc1ccc(-c2cccc(-c3ccc(CNCCCNCCCNCC(C)CC)cc3)c2)cc1 (stereo not drawn) [CZ-1-166, N^1,N^1′-([1,1′:3′,1″-terphenyl]-4,4″-diylbis(methylene))bis(N^3-(3-((2-methylbutyl)amino)propyl)propane-1,3-diamine)] |  |  |  | 8 µg/mL (≈ 12.2 µM) | 1 µg/mL (≈ 1.52 µM) |  | 4 µg/mL (≈ 6.09 µM) | 1 µg/mL (≈ 1.52 µM) |  | 
8 | CC(C)CNCCCNCCCNCc1cccc(-c2cc(-c3cccc(CNCCCNCCCNCC(C)C)c3)cc(C(C)(C)C)c2)c1 [CZ-1-184, N^1,N^1′-((5′-(tert-butyl)-[1,1′:3′,1″-terphenyl]-3,3″-diyl)bis(methylene))bis(N^3-(3-(isobutylamino)propyl)propane-1,3-diamine)] |  | 64 µg/mL (≈ 93.4 µM) |  |  |  |  | 16 µg/mL (≈ 23.4 µM) | 0.5 µg/mL (≈ 0.73 µM) |  | 
9 | CCC(C)CNCCCNCCCNCc1ccc(-c2cc(-c3ccc(CNCCCNCCCNCC(C)CC)cc3)cc(C(C)(C)C)c2)cc1 (stereo not drawn) [CZ-1-178, N^1,N^1′-((5′-(tert-butyl)-[1,1′:3′,1″-terphenyl]-4,4″-diyl)bis(methylene))bis(N^3-(3-((2-methylbutyl)amino)propyl)propane-1,3-diamine)] |  | 2 µg/mL (≈ 2.8 µM) |  | > 4 µg/mL | 1 µg/mL (≈ 1.4 µM) | 4 µg/mL (≈ 5.61 µM) | 1 µg/mL (≈ 1.4 µM) | 1 µg/mL (≈ 1.4 µM) | 500 µg/mL | <250 µg/mL
10 | CC(C)CNCCCNCCCNCc1ccc(-c2ccccc2-c2ccc(CNCCCNCCCNCC(C)C)cc2)cc1 [CZ-1-154, N^1,N^1′-([1,1′:2′,1″-terphenyl]-4,4″-diylbis(methylene))bis(N^3-(3-(isobutylamino)propyl)propane-1,3-diamine)] | 16 µg/mL (≈ 25.4 µM) |  | 16 µg/mL (≈ 25.4 µM) | > 32 µg/mL | 4 µg/mL (≈ 6.36 µM) |  | 32 µg/mL (≈ 50.9 µM) | 4 µg/mL (≈ 6.36 µM) |  | 
11 | CCCCCCNCCCNCCCNCc1cccc(-c2ccccc2-c2cccc(CNCCCNCCCNCCCCCC)c2)c1 [CZ-1-155, N^1,N^1′-([1,1′:2′,1″-terphenyl]-3,3″-diylbis(methylene))bis(N^3-(3-(hexylamino)propyl)propane-1,3-diamine)] |  |  |  | 16 µg/mL (≈ 23.4 µM) | 16 µg/mL (≈ 23.4 µM) |  | 16 µg/mL (≈ 23.4 µM) | 16 µg/mL (≈ 23.4 µM) |  | 
12 | CC(C)CNCCCNCCCNCc1ccc(-c2cccc(-c3ccc(CNCCCNCCCNCC(C)C)cc3)c2)cc1 [CZ-1-157, N^1,N^1′-([1,1′:3′,1″-terphenyl]-4,4″-diylbis(methylene))bis(N^3-(3-(isobutylamino)propyl)propane-1,3-diamine)] |  |  |  | 16 µg/mL (≈ 25.4 µM) | 4 µg/mL (≈ 6.36 µM) |  | 16 µg/mL (≈ 25.4 µM) | 4 µg/mL (≈ 6.36 µM) |  | >750 µg/mL
13 | CC(C)CNCCCNCCCNCc1cccc(-c2ccc(-c3cccc(CNCCCNCCCNCC(C)C)c3)c(CNCCCNCCCNCC(C)C)c2)c1 [CZ-1-153, N^1,N^1′,N^1″-([1,1′:4′,1″-terphenyl]-2′,3,3″-triyltris(methylene))tris(N^3-(3-(isobutylamino)propyl)propane-1,3-diamine)] |  |  |  | > 64 µg/mL | 16 µg/mL (≈ 19.3 µM) |  | > 64 µg/mL | 16 µg/mL (≈ 19.3 µM) |  | 
14 | CCC(CC)CNCCCNCCCNCc1cccc(-c2cc(-c3cccc(CNCCCNCCCNCC(CC)CC)c3)cc(C(C)(C)C)c2)c1 [CZ-1-183, N^1,N^1′-((5′-(tert-butyl)-[1,1′:3′,1″-terphenyl]-3,3″-diyl)bis(methylene))bis(N^3-(3-((2-ethylbutyl)amino)propyl)propane-1,3-diamine)] |  | 16 µg/mL (≈ 21.6 µM) |  |  |  |  | 8 µg/mL (≈ 10.8 µM) | 0.5 µg/mL (≈ 0.675 µM) |  | 
